Assay results as given in ChEMBL document CHEMBL4477270, “Design, synthesis, and protein methyltransferase activity of a unique set of constrained amine containing compounds” (Bioorg Med Chem Lett, 2016).

How the values were obtained:
[1] = target: Histone-lysine N-methyltransferase ASH1L (Homo sapiens) (UniProt Q9NR48); experiment: Inhibition of ASH1L (unknown origin) using biotin-labeled histone substrate assessed as residual activity at 50 uM in presence of [3H-Me]SAM by scintillation proximity assay relative to control
[2] = target: Histone-lysine N-methyltransferase, H3 lysine-79 specific (Homo sapiens) (UniProt Q8TEK3); experiment: Inhibition of DOT1L (unknown origin) using biotin-labeled histone substrate assessed as residual activity at 50 uM in presence of [3H-Me]SAM by scintillation proximity assay relative to control
[3] = target: Histone-lysine N-methyltransferase KMT5C (Homo sapiens) (UniProt Q86Y97); experiment: Inhibition of SUV420H2 (unknown origin) using biotin-labeled histone substrate assessed as residual activity at 50 uM in presence of [3H-Me]SAM by scintillation proximity assay relative to control
[4] = target: Histone-lysine N-methyltransferase 2A (Homo sapiens) (UniProt Q03164); experiment: Inhibition of MLL1 (unknown origin) using biotin-labeled histone substrate assessed as residual activity at 50 uM in presence of [3H-Me]SAM by scintillation proximity assay relative to control
[5] = target: T1, N-lysine methyltransferase KMT5A (Homo sapiens) (UniProt Q9NQR1); experiment: Inhibition of SETD8 (unknown origin) using biotin-labeled histone H4 (1 to 24 residues) as substrate assessed as residual activity at 50 uM in presence of [3H-Me]SAM by scintillation proximity assay relative to control
T1 sequence (whole entry): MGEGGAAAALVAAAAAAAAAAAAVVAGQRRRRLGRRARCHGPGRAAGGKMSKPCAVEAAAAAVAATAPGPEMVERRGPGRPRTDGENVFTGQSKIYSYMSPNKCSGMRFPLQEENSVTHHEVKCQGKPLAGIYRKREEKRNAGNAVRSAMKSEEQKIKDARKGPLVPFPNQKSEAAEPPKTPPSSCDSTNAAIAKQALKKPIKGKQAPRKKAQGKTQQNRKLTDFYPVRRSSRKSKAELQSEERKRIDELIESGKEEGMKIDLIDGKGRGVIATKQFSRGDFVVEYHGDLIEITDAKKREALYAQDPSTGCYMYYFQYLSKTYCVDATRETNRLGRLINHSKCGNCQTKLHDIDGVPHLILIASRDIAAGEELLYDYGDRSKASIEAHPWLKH

[6] = target: Histone-lysine N-methyltransferase 2C (Homo sapiens) (UniProt Q8NEZ4); experiment: Inhibition of MLL3 (unknown origin) using biotin-labeled histone substrate assessed as residual activity at 50 uM in presence of [3H-Me]SAM by scintillation proximity assay relative to control
[7] = target: Histone-lysine N-methyltransferase SUV39H2 (Homo sapiens) (UniProt Q9H5I1); experiment: Inhibition of SUV39H2 (unknown origin) using biotin-labeled histone substrate assessed as residual activity at 50 uM in presence of [3H-Me]SAM by scintillation proximity assay relative to control
[8] = target: Protein N-lysine methyltransferase METTL21A (Homo sapiens) (UniProt Q8WXB1); experiment: Inhibition of METTL21A (unknown origin) using biotin-labeled histone substrate assessed as residual activity at 50 uM in presence of [3H-Me]SAM by scintillation proximity assay relative to control
[9] = target: T2, Histone-lysine N-methyltransferase SUV39H1 (Homo sapiens) (UniProt O43463); experiment: Inhibition of SUV39H1 (unknown origin) using biotin-labeled histone substrate assessed as residual activity at 50 uM in presence of [3H-Me]SAM by scintillation proximity assay relative to control
T2 sequence (whole entry): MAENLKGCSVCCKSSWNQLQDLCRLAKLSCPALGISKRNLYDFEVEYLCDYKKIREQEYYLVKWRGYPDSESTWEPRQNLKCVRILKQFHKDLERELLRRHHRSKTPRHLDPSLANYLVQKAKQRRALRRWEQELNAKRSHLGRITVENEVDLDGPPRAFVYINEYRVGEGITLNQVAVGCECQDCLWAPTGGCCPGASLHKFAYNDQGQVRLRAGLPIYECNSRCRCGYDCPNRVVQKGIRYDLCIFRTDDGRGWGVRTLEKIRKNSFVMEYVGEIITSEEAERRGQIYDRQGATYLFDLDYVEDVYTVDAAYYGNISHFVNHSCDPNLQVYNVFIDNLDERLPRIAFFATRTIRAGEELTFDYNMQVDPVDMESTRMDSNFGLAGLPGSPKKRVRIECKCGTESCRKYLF

[10] = target: Histone-lysine N-methyltransferase PRDM9 (Homo sapiens) (UniProt Q9NQV7); experiment: Inhibition of PRDM9 (unknown origin) using biotin-labeled histone substrate assessed as residual activity at 50 uM in presence of [3H-Me]SAM by scintillation proximity assay relative to control
[11] = target: Protein N-lysine methyltransferase METTL21D (Homo sapiens) (UniProt Q9H867); experiment: Inhibition of METTL21D (unknown origin) using biotin-labeled histone substrate assessed as residual activity at 50 uM in presence of [3H-Me]SAM by scintillation proximity assay relative to control
Sequence of Protein N-lysine methyltransferase METTL21D (Homo sapiens) (Q9H867 whole entry): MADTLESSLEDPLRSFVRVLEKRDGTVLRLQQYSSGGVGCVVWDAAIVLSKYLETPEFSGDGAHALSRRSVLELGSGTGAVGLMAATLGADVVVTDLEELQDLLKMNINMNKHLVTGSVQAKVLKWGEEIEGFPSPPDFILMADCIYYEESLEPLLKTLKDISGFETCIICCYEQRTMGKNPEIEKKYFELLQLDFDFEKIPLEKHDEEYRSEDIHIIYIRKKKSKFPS

Sequence of Histone-lysine N-methyltransferase, H3 lysine-79 specific (Homo sapiens) (Q8TEK3 whole entry, looked up): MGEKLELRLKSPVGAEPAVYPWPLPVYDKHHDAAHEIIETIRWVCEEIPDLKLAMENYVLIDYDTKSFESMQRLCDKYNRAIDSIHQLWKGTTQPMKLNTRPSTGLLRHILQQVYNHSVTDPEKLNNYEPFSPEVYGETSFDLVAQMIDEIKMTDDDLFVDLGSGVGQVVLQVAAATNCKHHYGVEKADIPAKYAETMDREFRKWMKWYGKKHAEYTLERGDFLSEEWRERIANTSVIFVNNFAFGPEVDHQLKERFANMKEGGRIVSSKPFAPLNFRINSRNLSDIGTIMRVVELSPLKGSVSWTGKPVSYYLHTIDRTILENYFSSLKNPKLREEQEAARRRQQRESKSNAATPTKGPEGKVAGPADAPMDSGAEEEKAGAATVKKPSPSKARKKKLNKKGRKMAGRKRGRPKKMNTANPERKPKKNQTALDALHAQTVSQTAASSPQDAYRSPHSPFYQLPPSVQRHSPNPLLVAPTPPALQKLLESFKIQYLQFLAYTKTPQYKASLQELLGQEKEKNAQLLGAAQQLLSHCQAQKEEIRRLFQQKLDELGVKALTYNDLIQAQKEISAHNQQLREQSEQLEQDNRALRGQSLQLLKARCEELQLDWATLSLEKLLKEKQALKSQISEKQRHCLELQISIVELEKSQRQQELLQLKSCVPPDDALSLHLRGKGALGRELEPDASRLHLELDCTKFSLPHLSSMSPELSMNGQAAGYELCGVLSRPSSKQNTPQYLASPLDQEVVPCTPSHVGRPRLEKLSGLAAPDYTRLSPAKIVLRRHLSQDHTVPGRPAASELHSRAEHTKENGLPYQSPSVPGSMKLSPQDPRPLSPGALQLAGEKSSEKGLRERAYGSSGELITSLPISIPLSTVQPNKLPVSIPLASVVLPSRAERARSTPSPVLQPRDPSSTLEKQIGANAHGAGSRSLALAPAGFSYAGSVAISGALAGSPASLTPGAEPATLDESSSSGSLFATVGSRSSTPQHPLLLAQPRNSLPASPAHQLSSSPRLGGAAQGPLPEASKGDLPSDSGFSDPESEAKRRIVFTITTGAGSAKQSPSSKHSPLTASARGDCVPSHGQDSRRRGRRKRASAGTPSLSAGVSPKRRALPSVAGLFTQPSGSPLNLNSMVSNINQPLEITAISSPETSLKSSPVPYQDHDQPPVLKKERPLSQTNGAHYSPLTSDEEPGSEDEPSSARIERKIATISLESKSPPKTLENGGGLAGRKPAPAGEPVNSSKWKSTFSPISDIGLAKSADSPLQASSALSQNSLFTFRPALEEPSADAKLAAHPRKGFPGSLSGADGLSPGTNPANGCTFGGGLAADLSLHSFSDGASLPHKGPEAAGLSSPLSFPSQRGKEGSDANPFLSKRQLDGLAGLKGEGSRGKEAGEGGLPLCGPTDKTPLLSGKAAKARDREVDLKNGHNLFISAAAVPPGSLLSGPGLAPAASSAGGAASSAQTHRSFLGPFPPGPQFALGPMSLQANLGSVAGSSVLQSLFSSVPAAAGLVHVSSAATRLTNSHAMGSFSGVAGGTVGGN
Sequence of Histone-lysine N-methyltransferase SUV39H2 (Homo sapiens) (Q9H5I1 whole entry): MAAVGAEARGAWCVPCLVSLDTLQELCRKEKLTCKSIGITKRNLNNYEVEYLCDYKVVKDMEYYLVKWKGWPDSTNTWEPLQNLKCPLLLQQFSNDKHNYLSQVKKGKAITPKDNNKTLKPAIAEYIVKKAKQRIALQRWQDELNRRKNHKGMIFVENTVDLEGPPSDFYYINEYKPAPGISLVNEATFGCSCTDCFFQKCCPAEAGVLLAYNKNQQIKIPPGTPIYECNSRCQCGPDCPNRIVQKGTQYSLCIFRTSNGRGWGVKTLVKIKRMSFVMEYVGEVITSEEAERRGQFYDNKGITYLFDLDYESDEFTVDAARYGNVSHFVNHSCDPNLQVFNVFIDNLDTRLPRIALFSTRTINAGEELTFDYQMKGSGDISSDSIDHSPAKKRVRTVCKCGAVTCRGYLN
Sequence of Histone-lysine N-methyltransferase KMT5C (Homo sapiens) (Q86Y97 whole entry, looked up): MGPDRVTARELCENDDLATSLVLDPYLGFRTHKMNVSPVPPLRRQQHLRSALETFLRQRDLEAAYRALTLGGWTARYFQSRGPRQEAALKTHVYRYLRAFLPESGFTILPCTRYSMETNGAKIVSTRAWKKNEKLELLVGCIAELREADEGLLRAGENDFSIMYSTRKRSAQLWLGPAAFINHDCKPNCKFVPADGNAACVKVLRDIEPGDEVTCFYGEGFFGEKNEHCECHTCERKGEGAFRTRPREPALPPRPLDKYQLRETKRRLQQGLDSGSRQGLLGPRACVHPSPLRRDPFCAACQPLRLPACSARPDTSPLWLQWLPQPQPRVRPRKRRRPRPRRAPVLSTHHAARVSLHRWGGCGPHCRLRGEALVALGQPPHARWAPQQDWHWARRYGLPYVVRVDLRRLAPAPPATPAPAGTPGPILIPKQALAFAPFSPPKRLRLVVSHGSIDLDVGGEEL
Sequence of Protein N-lysine methyltransferase METTL21A (Homo sapiens) (Q8WXB1 whole entry): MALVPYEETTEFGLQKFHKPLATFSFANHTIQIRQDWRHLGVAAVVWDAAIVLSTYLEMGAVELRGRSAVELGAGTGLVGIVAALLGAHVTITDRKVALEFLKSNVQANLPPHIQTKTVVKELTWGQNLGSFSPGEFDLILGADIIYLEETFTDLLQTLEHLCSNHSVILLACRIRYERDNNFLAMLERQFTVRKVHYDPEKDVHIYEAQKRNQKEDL
Sequence of Histone-lysine N-methyltransferase PRDM9 (Homo sapiens) (Q9NQV7 whole entry): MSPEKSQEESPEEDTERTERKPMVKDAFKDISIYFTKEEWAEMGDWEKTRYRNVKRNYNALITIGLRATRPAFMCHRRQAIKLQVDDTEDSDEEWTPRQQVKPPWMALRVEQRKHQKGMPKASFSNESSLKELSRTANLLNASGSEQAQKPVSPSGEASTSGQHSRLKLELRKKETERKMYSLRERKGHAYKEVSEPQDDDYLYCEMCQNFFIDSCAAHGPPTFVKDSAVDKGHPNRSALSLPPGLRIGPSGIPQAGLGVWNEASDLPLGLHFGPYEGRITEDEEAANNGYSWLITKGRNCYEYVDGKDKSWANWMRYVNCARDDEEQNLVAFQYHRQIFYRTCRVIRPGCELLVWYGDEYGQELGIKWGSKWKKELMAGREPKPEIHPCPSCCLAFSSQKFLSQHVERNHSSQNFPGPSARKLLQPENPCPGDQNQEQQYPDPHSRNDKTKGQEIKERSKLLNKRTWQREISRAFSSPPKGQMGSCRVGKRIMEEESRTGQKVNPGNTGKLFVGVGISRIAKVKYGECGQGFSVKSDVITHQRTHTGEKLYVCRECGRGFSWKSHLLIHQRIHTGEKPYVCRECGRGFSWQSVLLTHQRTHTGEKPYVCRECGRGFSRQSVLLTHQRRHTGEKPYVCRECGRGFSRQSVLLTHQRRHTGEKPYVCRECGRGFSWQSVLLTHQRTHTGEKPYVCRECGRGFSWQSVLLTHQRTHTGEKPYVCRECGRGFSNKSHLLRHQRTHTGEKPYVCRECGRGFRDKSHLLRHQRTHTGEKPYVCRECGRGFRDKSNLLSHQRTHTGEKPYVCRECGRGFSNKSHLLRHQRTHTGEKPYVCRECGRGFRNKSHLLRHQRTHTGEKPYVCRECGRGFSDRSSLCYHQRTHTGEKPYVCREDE

CN1CC[C@H]2CN(C(=O)c3cccc(Br)c3)C[C@H]21
Activity [1]: 102% | Activity [2]: 91% | Activity [3]: 100% | Activity [4]: 105% | Activity [5]: 105% | Activity [6]: 105% | Activity [7]: 101% | Activity [8]: 89% | Activity [9]: 82% | Activity [10]: 106% | Activity [11]: 105%

O=C(c1cccc(Br)c1)N1CCC[C@@H]2CNC[C@@H]21
Activity [1]: 98% | Activity [2]: 96% | Activity [3]: 103% | Activity [4]: 109% | Activity [5]: 103% | Activity [6]: 108% | Activity [7]: 104% | Activity [8]: 102% | Activity [9]: 95% | Activity [10]: 102% | Activity [11]: 106%

CN1CCCC12CCCN(C(=O)c1cccc(Br)c1)C2 (stereo not given)
Activity [1]: 95% | Activity [2]: 94% | Activity [3]: 83% | Activity [4]: 106% | Activity [5]: 96% | Activity [6]: 105% | Activity [7]: 99% | Activity [8]: 92% | Activity [9]: 88% | Activity [10]: 108% | Activity [11]: 99%

CN1CCC[C@@H]2CN(C(=O)c3cccc(Br)c3)C[C@@H]21
Activity [1]: 99% | Activity [2]: 97% | Activity [3]: 100% | Activity [4]: 107% | Activity [5]: 45% | Activity [6]: 106% | Activity [7]: 101% | Activity [8]: 108% | Activity [9]: 103% | Activity [10]: 104% | Activity [11]: 100%

CN1CCC2(CCCN2C(=O)c2cccc(Br)c2)CC1
Activity [1]: 93% | Activity [2]: 97% | Activity [3]: 99% | Activity [4]: 105% | Activity [5]: 91% | Activity [6]: 97% | Activity [7]: 97% | Activity [8]: 99% | Activity [9]: 101% | Activity [10]: 98% | Activity [11]: 111%

CN1CCCC2(CCCN2C(=O)c2cccc(Br)c2)C1 (stereo not given)
Activity [1]: 99% | Activity [2]: 107% | Activity [3]: 109% | Activity [4]: 99% | Activity [5]: 106% | Activity [6]: 97% | Activity [7]: 92% | Activity [8]: 100% | Activity [9]: 91% | Activity [10]: 94% | Activity [11]: 104%

CN1CCC2(CC1)CCN(C(=O)c1cccc(Br)c1)CC2
Activity [1]: 97% | Activity [2]: 102% | Activity [3]: 105% | Activity [4]: 99% | Activity [5]: 91% | Activity [6]: 99% | Activity [7]: 116% | Activity [8]: 105% | Activity [9]: 102% | Activity [10]: 106% | Activity [11]: 105%

O=C(c1cccc(Br)c1)N1CCCC2(CCCCN2)C1 (stereo not given)
Activity [1]: 104% | Activity [2]: 100% | Activity [3]: 96% | Activity [4]: 110% | Activity [5]: 106% | Activity [6]: 101% | Activity [7]: 91% | Activity [8]: 97% | Activity [9]: 90% | Activity [10]: 101% | Activity [11]: 103%

O=C(c1cccc(Br)c1)N1C[C@@H]2CC3CCCN3[C@@H]2C1 (stereo not given in full)
Activity [1]: 108% | Activity [2]: 100% | Activity [3]: 101% | Activity [4]: 88% | Activity [5]: 104% | Activity [6]: 97% | Activity [7]: 102% | Activity [8]: 100% | Activity [9]: 99% | Activity [10]: 97% | Activity [11]: 106%

O=C(c1cccc(Br)c1)N1CCCC2(CCNCC2)C1
Activity [1]: 100% | Activity [2]: 96% | Activity [3]: 100% | Activity [4]: 103% | Activity [5]: 105% | Activity [6]: 107% | Activity [7]: 95% | Activity [8]: 97% | Activity [9]: 106% | Activity [10]: 98% | Activity [11]: 106%

O=C(c1cccc(Br)c1)N1CC[C@H]2NCC[C@H]2C1
Activity [1]: 96% | Activity [2]: 99% | Activity [3]: 99% | Activity [4]: 110% | Activity [5]: 113% | Activity [6]: 103% | Activity [7]: 83% | Activity [8]: 99% | Activity [9]: 104% | Activity [10]: 109% | Activity [11]: 103%

CN1CCCC2(CCCN(C(=O)c3cccc(Br)c3)C2)C1 (stereo not given)
Activity [1]: 93% | Activity [2]: 96% | Activity [3]: 100% | Activity [4]: 95% | Activity [5]: 107% | Activity [6]: 96% | Activity [7]: 84% | Activity [8]: 100% | Activity [9]: 97% | Activity [10]: 93% | Activity [11]: 99%

CN1CCCCC12CCCN(C(=O)c1cccc(Br)c1)C2 (stereo not given)
Activity [1]: 94% | Activity [2]: 100% | Activity [3]: 99% | Activity [4]: 109% | Activity [5]: 73% | Activity [6]: 103% | Activity [7]: 91% | Activity [8]: 100% | Activity [9]: 102% | Activity [10]: 111% | Activity [11]: 91%

CN1CCCC12CCN(C(=O)c1cccc(Br)c1)CC2
Activity [1]: 91% | Activity [2]: 100% | Activity [3]: 103% | Activity [4]: 105% | Activity [5]: 103% | Activity [6]: 106% | Activity [7]: 94% | Activity [8]: 98% | Activity [9]: 104% | Activity [10]: 107% | Activity [11]: 120%

O=C(c1cccc(Br)c1)N1C[C@@H]2CC3CCCCN3[C@@H]2C1 (stereo not given in full)
Activity [1]: 101% | Activity [2]: 96% | Activity [3]: 100% | Activity [4]: 109% | Activity [5]: 106% | Activity [6]: 102% | Activity [7]: 108% | Activity [8]: 91% | Activity [9]: 107% | Activity [10]: 107% | Activity [11]: 106%

C[N+]1(C)CCCCC12CCN(C(=O)c1cccc(Br)c1)CC2
Activity [1]: 85% | Activity [2]: 96% | Activity [3]: 98% | Activity [4]: 100% | Activity [5]: 49% | Activity [6]: 96% | Activity [7]: 114% | Activity [8]: 97% | Activity [9]: 98% | Activity [10]: 107% | Activity [11]: 102%

CN1CCCCC12CCN(C(=O)c1cccc(Br)c1)CC2
Activity [1]: 98% | Activity [2]: 101% | Activity [3]: 94% | Activity [4]: 115% | Activity [5]: 43% | Activity [6]: 104% | Activity [7]: 111% | Activity [8]: 97% | Activity [9]: 103% | Activity [10]: 105% | Activity [11]: 99%

O=C(c1cccc(Br)c1)N1CCC2(CCNCC2)CC1
Activity [1]: 95% | Activity [2]: 103% | Activity [3]: 97% | Activity [4]: 105% | Activity [5]: 101% | Activity [6]: 103% | Activity [7]: 95% | Activity [8]: 98% | Activity [9]: 99% | Activity [10]: 105% | Activity [11]: 101%

O=C(c1cccc(Br)c1)N1CC[C@@H]2[C@@H](CC3CCCCN32)C1 (stereo not given in full)
Activity [1]: 95% | Activity [2]: 105% | Activity [3]: 89% | Activity [4]: 109% | Activity [5]: 104% | Activity [6]: 97% | Activity [7]: 113% | Activity [8]: 99% | Activity [9]: 94% | Activity [10]: 101% | Activity [11]: 106%

CN1C[C@H]2CCCN(C(=O)c3cccc(Br)c3)[C@H]2C1
Activity [1]: 96% | Activity [2]: 94% | Activity [3]: 100% | Activity [4]: 102% | Activity [5]: 85% | Activity [6]: 105% | Activity [7]: 77% | Activity [8]: 93% | Activity [9]: 97% | Activity [10]: 103% | Activity [11]: 102%
